What was measured:
B. subtilis 168 [1] = test: fitness (endpoint OD595 vs no drug) (fraction); higher = more growth; conditions: main component drawn
Procedure, shortened: (§1)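 Background-subtracted growth curves were the basis for fitness, taken as the optical density at entry into stationary phase over the robust mean of no-drug control wells. A cap of 1 was applied. The curves came from OD595 readings every 30 min for 14 h at 37 °C, in 384-well plates seeded at OD595 0.01 with 30 µl, or 55 µl for S. pneumoniae.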

S. aureus DSM 20231 = test: Bliss interaction score (quartile over a dose matrix) (fitness difference); higher = more antagonism (negative = synergy)
Procedure, shortened: (§2)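 The Bliss score is observed minus expected fitness, where expected fitness is the product of the single-drug fitness values inferred from the combination data. Fitness is the OD595 at the onset of stationary phase over the plate's robust no-drug mean, capped at 1. Scores are summarised by quartiles over technical, biological and donor/recipient replicates.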

S. pneumoniae D39V [2] = test: as above
Procedure, shortened: as §2

B. subtilis 168 [3] = test: as above
Procedure, shortened: as §2

S. aureus Newman = test: as above
Procedure, shortened: as §2

S. pneumoniae D39V [4] = test: fitness (endpoint OD595 vs no drug) (fraction); higher = more growth
Procedure, shortened: as §1
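Throughout, for Bliss interaction score (quartile over a dose matrix): first quartile when negative (synergy) and third quartile when positive (antagonism).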

CNC(C)C1CCC(N)C(OC2C(N)CC(N)C(OC3OCC(C)(O)C(NC)C3O)C2O)O1 (stereo not given) [Gentamicin] + COc1cc(Cc2cnc(N)nc2N)cc(OC)c1OC [Trimethoprim]
fitness, B. subtilis 168 [1], one replicate
Conditions | partner 0.1 µg/mL | partner 0.2 µg/mL | partner 0.4 µg/mL | partner 1 µg/mL | partner 2 µg/mL
first compound 0.0625 µg/mL | 0.953 | 0.787 | 0.539 | 0.0449 | 0.0512
first compound 0.125 µg/mL | 0.716 | 0.294 | 0.0552 | 0.0304 | 0.0461
first compound 0.25 µg/mL | 0.0356 | 0.0576 | 0.0438 | 0.0435 | 0.0503

fitness, B. subtilis 168 [1]
Conditions | first compound 0.0625 µg/mL | first compound 0.125 µg/mL | first compound 0.25 µg/mL
partner 0.125 µg/mL | 0.661 | 0.548 | 0.0923
partner 0.25 µg/mL | 0.53 | – | 0.0847
partner 0.5 µg/mL | – | – | 0.041

main component drawn
Conditions | Bliss interaction score
B. subtilis 168 [3] | -0.201
S. aureus DSM 20231 | -0.0371
S. aureus Newman | 0.0637
S. pneumoniae D39V [2] | -0.193

Clc1ccc(COC(Cn2ccnc2)c2ccc(Cl)cc2Cl)c(Cl)c1 (stereo not given) [Miconazole] + COc1c(N2C[C@@H]3CCCN[C@@H]3C2)c(F)cc2c(=O)c(C(=O)O)cn(C3CC3)c12 [Moxifloxacin]
fitness, S. pneumoniae D39V [4]
Conditions | first compound 1.073 µg/mL | first compound 1.25 µg/mL | first compound 2.145 µg/mL | first compound 2.5 µg/mL | first compound 4.29 µg/mL | first compound 5 µg/mL
partner 0.0037 µg/mL | 0.959 | – | 0.951 | – | 0.802 | –
partner 0.005 µg/mL | – | 0.935 | – | 0.926 | – | 0.953
partner 0.0075 µg/mL | 0.986 | – | 0.942 | – | 0.796 | –
partner 0.01 µg/mL | – | 0.925 | – | 0.936 | – | 0.961
partner 0.015 µg/mL | 0.957 | – | 0.942 | – | 0.682 | –
partner 0.02 µg/mL | – | 0.825 | – | 0.828 | – | 0.911

Conditions | Bliss interaction score
B. subtilis 168 [3] | -0.0223
S. aureus DSM 20231 | -0.059
S. aureus Newman | 0.0536
S. pneumoniae D39V [2] | 0.0598

Clc1ccc(COC(Cn2ccnc2)c2ccc(Cl)cc2Cl)c(Cl)c1 (stereo not given) [Miconazole] + COc1ccc(C[C@H](N)C(=O)N[C@H]2[C@@H](O)[C@H](n3cnc4c(N(C)C)ncnc43)O[C@@H]2CO)cc1 [Puromycin]
fitness, S. pneumoniae D39V [4]
Conditions | first compound 1.073 µg/mL | first compound 2.145 µg/mL | first compound 4.29 µg/mL
partner 1 µg/mL | 0.966 | ≥ 1 | 0.968
partner 2 µg/mL | 0.996 | ≥ 1 | 0.976
partner 4 µg/mL | 0.879 | 0.903 | 0.846

fitness, S. pneumoniae D39V [4], one replicate
Conditions | first compound 1.25 µg/mL | first compound 2.5 µg/mL | first compound 5 µg/mL
partner 1 µg/mL | 0.884 | 0.91 | ≥ 1
partner 2 µg/mL | 0.914 | 0.903 | 0.874
partner 4 µg/mL | 0.742 | 0.717 | 0.809

Conditions | Bliss interaction score
B. subtilis 168 [3] | 0.0522
S. aureus DSM 20231 | 0.0532
S. aureus Newman | 0.0603
S. pneumoniae D39V [2] | 0.124

Clc1ccc(COC(Cn2ccnc2)c2ccc(Cl)cc2Cl)c(Cl)c1 (stereo not given) [Miconazole] + C[n+]1ccc(-c2cc[n+](C)cc2)cc1 [Paraquat]
fitness, S. pneumoniae D39V [4]
Conditions | first compound 1.073 µg/mL | first compound 2.145 µg/mL | first compound 4.29 µg/mL
partner 1.5 µg/mL | ≥ 1 | 0.999 | 0.925
partner 3 µg/mL | ≥ 1 | 0.987 | 0.908
partner 6 µg/mL | 0.979 | 0.983 | 0.824

fitness, S. pneumoniae D39V [4], one replicate
Conditions | first compound 1.25 µg/mL | first compound 2.5 µg/mL | first compound 5 µg/mL
partner 1.5 µg/mL | ≥ 1 | 0.983 | 0.944
partner 3 µg/mL | ≥ 1 | ≥ 1 | 0.997
partner 6 µg/mL | 0.957 | 0.932 | 0.885

Conditions | Bliss interaction score
B. subtilis 168 [3] | 0.0318
S. aureus DSM 20231 | 0.0436
S. aureus Newman | -0.0378
S. pneumoniae D39V [2] | -0.0527

Clc1ccc(COC(Cn2ccnc2)c2ccc(Cl)cc2Cl)c(Cl)c1 (stereo not given) [Miconazole] + Cc1cc(NS(=O)(=O)c2ccc(N)cc2)no1 [Sulfamethoxazol]
fitness, S. pneumoniae D39V [4]
Conditions | first compound 1.073 µg/mL | first compound 2.145 µg/mL | first compound 4.29 µg/mL
partner 1 µg/mL | 0.989 | ≥ 1 | 0.946
partner 2 µg/mL | 0.981 | 0.998 | 0.923
partner 4 µg/mL | 0.999 | 0.988 | 0.924

fitness, S. pneumoniae D39V [4], one replicate
Conditions | first compound 1.25 µg/mL | first compound 2.5 µg/mL | first compound 5 µg/mL
partner 1 µg/mL | 0.94 | 0.966 | 0.932
partner 2 µg/mL | 0.894 | 0.955 | 0.908
partner 4 µg/mL | 0.892 | 0.876 | 0.864

Conditions | Bliss interaction score
B. subtilis 168 [3] | 0.0845
S. aureus DSM 20231 | 0.0319
S. aureus Newman | 0.0463
S. pneumoniae D39V [2] | 0.0572

Clc1ccc(COC(Cn2ccnc2)c2ccc(Cl)cc2Cl)c(Cl)c1 (stereo not given) [Miconazole] + Cc1onc(-c2ccccc2)c1C(=O)N[C@@H]1C(=O)N2[C@@H]1SC(C)(C)[C@@H]2C(=O)O [Oxacillin]
fitness, S. pneumoniae D39V [4]
Conditions | first compound 1.073 µg/mL | first compound 1.25 µg/mL | first compound 2.145 µg/mL | first compound 2.5 µg/mL | first compound 4.29 µg/mL | first compound 5 µg/mL
partner 0.01 µg/mL | ≥ 1 | 0.939 | ≥ 1 | 0.938 | 0.928 | 0.946
partner 0.02 µg/mL | 0.977 | 0.864 | 0.906 | 0.874 | 0.716 | 0.892
partner 0.04 µg/mL | – | 0.363 | – | 0.359 | 0.434 | 0.386

Conditions | Bliss interaction score
B. subtilis 168 [3] | 0.0802
S. aureus DSM 20231 | 0.0539
S. aureus Newman | 0.0481
S. pneumoniae D39V [2] | 0.0753

Clc1ccc(COC(Cn2ccnc2)c2ccc(Cl)cc2Cl)c(Cl)c1 (stereo not given) [Miconazole] + Cn1nnc(-c2ccc(-c3ccc(N4C[C@H](CO)OC4=O)cc3F)cn2)n1 [Tedizolid]
fitness, S. pneumoniae D39V [4]
Conditions | first compound 1.073 µg/mL | first compound 1.25 µg/mL | first compound 2.145 µg/mL | first compound 2.5 µg/mL | first compound 4.29 µg/mL | first compound 5 µg/mL
partner 0.03125 µg/mL | – | 0.96 | – | 0.97 | – | 0.925
partner 0.0625 µg/mL | – | 0.968 | – | 0.929 | – | 0.934
partner 0.125 µg/mL | 0.872 | 0.797 | 0.937 | 0.797 | 0.943 | 0.746
partner 0.25 µg/mL | 0.729 | – | 0.778 | – | 0.829 | –
partner 0.5 µg/mL | 0.413 | – | 0.402 | – | 0.489 | –

Conditions | Bliss interaction score
B. subtilis 168 [3] | 0.0402
S. aureus DSM 20231 | 0.0592
S. aureus Newman | 0.0625
S. pneumoniae D39V [2] | -0.0671

Clc1ccc(COC(Cn2ccnc2)c2ccc(Cl)cc2Cl)c(Cl)c1 (stereo not given) [Miconazole] + O=C1CN(/N=C/c2ccc([N+](=O)[O-])o2)C(=O)N1 [Nitrofurantoin]
fitness, S. pneumoniae D39V [4]
Conditions | first compound 1.073 µg/mL | first compound 1.25 µg/mL | first compound 2.145 µg/mL | first compound 2.5 µg/mL | first compound 4.29 µg/mL | first compound 5 µg/mL
partner 1.285 µg/mL | – | 0.987 | – | 0.959 | – | 0.945
partner 2 µg/mL | 0.972 | – | ≥ 1 | – | 0.93 | –
partner 2.57 µg/mL | – | 0.968 | – | 0.954 | – | 0.936
partner 4 µg/mL | 0.988 | – | ≥ 1 | – | 0.949 | –
partner 8 µg/mL | 0.92 | – | 0.951 | – | 0.919 | –

S. pneumoniae D39V [4], partner 5.14 µg/mL, one replicate
Conditions | fitness
first compound 1.25 µg/mL | 0.897
first compound 2.5 µg/mL | 0.848
first compound 5 µg/mL | 0.847

Conditions | Bliss interaction score
B. subtilis 168 [3] | -0.125
S. aureus DSM 20231 | 0.0458
S. aureus Newman | -0.0579
S. pneumoniae D39V [2] | 0.091

Cc1onc(-c2ccccc2)c1C(=O)N[C@@H]1C(=O)N2[C@@H]1SC(C)(C)[C@@H]2C(=O)O [Oxacillin] + CO[C@H]1/C=C/O[C@@]2(C)Oc3c(C)c(O)c4c(O)c(c(/C=N/N5CCN(C)CC5)c(O)c4c3C2=O)NC(=O)/C(C)=C\C=C\[C@H](C)[C@H](O)[C@@H](C)[C@@H](O)[C@@H](C)[C@H](OC(C)=O)[C@@H]1C [Rifampicin]
S. pneumoniae D39V [4], partner 0.025 µg/mL, one replicate
Conditions | fitness
first compound 0.01 µg/mL | 0.891
first compound 0.02 µg/mL | 0.801
first compound 0.04 µg/mL | 0.407

S. pneumoniae D39V [4], partner 0.2 µg/mL
Conditions | fitness
first compound 0.01 µg/mL | 0.144
first compound 0.02 µg/mL | 0.0871
first compound 0.04 µg/mL | 0.143

Conditions | Bliss interaction score
B. subtilis 168 [3] | 0.0578
S. aureus DSM 20231 | 0.0464
S. aureus Newman | 0.0684
S. pneumoniae D39V [2] | -0.0851

C[n+]1ccc(-c2cc[n+](C)cc2)cc1 [Paraquat] + CO[C@H]1/C=C/O[C@@]2(C)Oc3c(C)c(O)c4c(O)c(c(/C=N/N5CCN(C)CC5)c(O)c4c3C2=O)NC(=O)/C(C)=C\C=C\[C@H](C)[C@H](O)[C@@H](C)[C@@H](O)[C@@H](C)[C@H](OC(C)=O)[C@@H]1C [Rifampicin]
S. pneumoniae D39V [4], partner 0.025 µg/mL, one replicate
Conditions | fitness
first compound 1.5 µg/mL | 0.869
first compound 3 µg/mL | 0.833
first compound 6 µg/mL | 0.842

fitness, S. pneumoniae D39V [4]
Conditions | first compound 1.5 µg/mL | first compound 3 µg/mL | first compound 6 µg/mL
partner 0.05 µg/mL | – | 0.882 | 0.897
partner 0.2 µg/mL | 0.0862 | 0.102 | 0.0798

Conditions | Bliss interaction score
B. subtilis 168 [3] | 0.0618
S. aureus DSM 20231 | 0.0593
S. aureus Newman | 0.0217
S. pneumoniae D39V [2] | -0.0393

Cn1c2cccc(=O)c-2nc2ccccc21 [Pyocyanin] + CO[C@H]1/C=C/O[C@@]2(C)Oc3c(C)c(O)c4c(O)c(c(/C=N/N5CCN(C)CC5)c(O)c4c3C2=O)NC(=O)/C(C)=C\C=C\[C@H](C)[C@H](O)[C@@H](C)[C@@H](O)[C@@H](C)[C@H](OC(C)=O)[C@@H]1C [Rifampicin]
fitness, S. pneumoniae D39V [4], one replicate
Conditions | first compound 0.325 µg/mL | first compound 0.65 µg/mL | first compound 1.3 µg/mL
partner 0.025 µg/mL | 0.917 | 0.942 | 0.765
partner 0.2 µg/mL | – | – | 0.021

fitness, S. pneumoniae D39V [4]
Conditions | first compound 0.325 µg/mL | first compound 0.65 µg/mL
partner 0.05 µg/mL | – | 0.885
partner 0.2 µg/mL | 0.0407 | 0.178

Conditions | Bliss interaction score
B. subtilis 168 [3] | -0.0612
S. aureus DSM 20231 | 0.031
S. aureus Newman | 0.0295
S. pneumoniae D39V [2] | 0.0928

From the supplement of paper PMC10627819
